# Laboratory results taken from US20060241296A1, “Vanilloid receptor ligands and their use in treatments” (priority 2005, published 2006).
row,Compound,melting point [°C]
1,"O[C@@H]1Cc2cccc(Nc3cc(-c4ccc(C(F)(F)F)cc4)ncn3)c2C[C@H]1O (racemic) [Example 28, (±)-5-(6-(4-(Trifluoromethyl)phenyl)pyrimidin-4-ylamino)-1,2,3,4-tetrahydronaphthalene-2,3-trans-diol]",286 to 289
2,"O[C@@H]1Cc2c(cccc2Nc2cc(-c3ccc(C(F)(F)F)cc3)ncn2)C[C@@H]1O (racemic) [Example 30, (±)-5-(6-(4-(Trifluoromethyl)phenyl)pyrimidin-4-ylamino)-1,2,3,4-tetrahydronaphthalene-2,3-cis-diol]",231 to 232
3,"Nc1cc(C(F)(F)F)ccc1-c1cc(Nc2cccc3c2C[C@@H](O)[C@@H](O)C3)ncn1 (racemic) [Example 31, (±)-5-(6-(2-Amino-4-(trifluoromethyl)phenyl)pyrimidin-4-ylamino)-1,2,3,4-tetrahydronaphthalene-2,3-cis-diol]",233 to 234

# Continued, values first:
row,melting point [°C],Compound
1,192,"OC1CCc2c(Br)ccc(Nc3cc(-c4ccc(C(F)(F)F)cc4)ncn3)c2C1 (centres unmarked) [Example 37, 5-Bromo-8-(6-(4-(trifluoromethyl)phenyl)pyrimidin-4-ylamino)-1,2,3,4-tetrahydronaphthalen-2-ol]"
2,178 to 179,"OC1CCc2cccc(Nc3cc(-c4ccc(C(F)(F)F)cc4)ncn3)c2C1 (centres unmarked) [Example 1, 8-(6-(4-(Trifluoromethyl)phenyl)pyrimidin-4-ylamino)-1,2,3,4-tetrahydro-naphthalen-2-ol]"
